Results published in ChEMBL document CHEMBL4831484, “Identification of 3, 4-disubstituted pyridine derivatives as novel CDK8 inhibitors” (Eur J Med Chem, 2021).
Active and inactive are the calls of the source. The calls are words filed in the database; no cut-off is given here.

Experiments:
[1] = biological target: CDK8/Cyclin C (Homo sapiens, UniProt P49336); assay: Inhibition of CDK8/Cyclin C (unknown origin) measured after 1 hr by plate reader assay; format: protein-complex assay
[2] = biological target: CDK8/Cyclin C (Homo sapiens) (UniProt P49336+P24863); assay: Inhibition of CDK8/Cyclin C (unknown origin) at 10 uM measured after 1 hr by plate reader assay relative to control; format: protein-complex assay
[3] = Antiproliferative activity against human KB-VIN cells assessed as inhibition of cell growth measured after 72 hrs by SRB assay; format: functional; details: KBVIN
[4] = test system: HCT-116; assay: Antiproliferative activity against human HCT-116 cells assessed as inhibition of cell growth measured after 72 hrs by […]; format: functional
[5] = biological target: Cyclin-dependent kinase 8 (Homo sapiens) (UniProt P49336); assay: Inhibition of CDK8 (unknown origin) at 10 uM
[6] = test system: MDA-MB-231; assay: Antiproliferative activity against human MDA-MB-231 cells assessed as inhibition of cell growth measured after 72 hrs by SRB assay; format: functional
[7] = test system: A549; assay: Antiproliferative activity against human A549 cells assessed as inhibition of cell growth measured after 72 hrs by SRB assay; format: functional
[8] = test system: KB; assay: Antiproliferative activity against human KB cells assessed as inhibition of cell growth measured after 72 hrs by SRB assay; format: functional
[9] = test system: MCF7; assay: Antiproliferative activity against human MCF7 cells assessed as inhibition of cell growth measured after 72 hrs by SRB assay; format: functional
[10] = biological target: Cyclin-dependent kinase 7 (Homo sapiens) (UniProt P50613); assay: Inhibition of CDK7 (unknown origin) at 10 uM
[11] = AUC (0 to 24h) in ICR mouse at 150 mg/kg, po measured after 24 hrs by LC-MS/MS analysis; format: ADME, organism-based; design: route oral, dose 150 mg/kg, time 24 hrs; details: in vivo
[12] = test system: HCT-116; assay: Antitumour activity against human HCT-116 cells assessed as decrease in tumor volume at 150 mg/kg, po measured after 14 days relative to control; format: functional; design: scale not given: the % may be the effect or the level left; details: time 14 day
[13] = Toxicity in BALB/c mouse xenografted with human HCT-116 cells assessed as mortality at 150 mg/kg, po measured after 14 days; format: organism-based; details: in vivo, 336 h, time 14 day
[14] = Cmax in ICR mouse at 150 mg/kg, po measured after 24 hrs by LC-MS/MS analysis; format: ADME, organism-based; design: route oral, time 24 hrs, dose 150 mg/kg; details: in vivo
[15] = MRT (0 to 24h) in ICR mouse at 150 mg/kg, po measured after 24 hrs by LC-MS/MS analysis; format: ADME, organism-based; details: in vivo
[16] = Half-life in ICR mouse at 150 mg/kg, po measured after 24 hrs by LC-MS/MS analysis; format: ADME, organism-based; details: in vivo
[17] = Toxicity in BALB/c mouse xenografted with human HCT-116 cells assessed as changes in body weight at 150 mg/kg, po measured after 14 days; format: organism-based; details: in vivo, 336 h, time 14 day
[18] = Tmax in ICR mouse at 150 mg/kg, po measured after 24 hrs by LC-MS/MS analysis; format: ADME, organism-based; details: in vivo
[19] = biological target: Cyclin-C/Cyclin-dependent kinase 19 (Homo sapiens, UniProt Q9BWU1); assay: Inhibition of CDK19/Cyclin C (unknown origin); format: protein-complex assay
[20] = test system: MDA-MB-231; assay: Induction of cell cycle arrest in human MDA-MB-231 cells assessed as accumulation of cells at G2/M phase measured after 24 hrs by PI staining based flow cytometry assay; format: functional

Sequence of Cyclin-dependent kinase 8 (Homo sapiens) (P49336 whole entry): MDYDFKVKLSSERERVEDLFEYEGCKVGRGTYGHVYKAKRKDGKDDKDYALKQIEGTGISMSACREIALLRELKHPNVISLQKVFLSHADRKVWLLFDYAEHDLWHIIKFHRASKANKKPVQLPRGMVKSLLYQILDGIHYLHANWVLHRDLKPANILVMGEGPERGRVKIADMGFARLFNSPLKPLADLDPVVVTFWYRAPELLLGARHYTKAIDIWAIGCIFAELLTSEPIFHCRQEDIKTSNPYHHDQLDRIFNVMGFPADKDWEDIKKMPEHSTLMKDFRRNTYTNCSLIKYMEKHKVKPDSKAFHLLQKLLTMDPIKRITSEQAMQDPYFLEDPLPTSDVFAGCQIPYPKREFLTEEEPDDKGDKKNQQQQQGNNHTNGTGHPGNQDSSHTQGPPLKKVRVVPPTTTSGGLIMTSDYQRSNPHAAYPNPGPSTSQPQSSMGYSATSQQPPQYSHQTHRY
Sequence of CDK8/Cyclin C (P49336 whole entry): as above
Sequence of CDK8/Cyclin C (P24863 whole entry, further chain): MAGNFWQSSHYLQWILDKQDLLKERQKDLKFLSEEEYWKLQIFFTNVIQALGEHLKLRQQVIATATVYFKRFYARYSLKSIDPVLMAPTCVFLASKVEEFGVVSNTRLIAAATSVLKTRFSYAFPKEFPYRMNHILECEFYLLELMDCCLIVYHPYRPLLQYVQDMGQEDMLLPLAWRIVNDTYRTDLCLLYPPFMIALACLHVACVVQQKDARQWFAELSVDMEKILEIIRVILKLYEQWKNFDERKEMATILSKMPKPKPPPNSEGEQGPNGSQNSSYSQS
Sequence of Cyclin-C/Cyclin-dependent kinase 19 (Q9BWU1 whole entry): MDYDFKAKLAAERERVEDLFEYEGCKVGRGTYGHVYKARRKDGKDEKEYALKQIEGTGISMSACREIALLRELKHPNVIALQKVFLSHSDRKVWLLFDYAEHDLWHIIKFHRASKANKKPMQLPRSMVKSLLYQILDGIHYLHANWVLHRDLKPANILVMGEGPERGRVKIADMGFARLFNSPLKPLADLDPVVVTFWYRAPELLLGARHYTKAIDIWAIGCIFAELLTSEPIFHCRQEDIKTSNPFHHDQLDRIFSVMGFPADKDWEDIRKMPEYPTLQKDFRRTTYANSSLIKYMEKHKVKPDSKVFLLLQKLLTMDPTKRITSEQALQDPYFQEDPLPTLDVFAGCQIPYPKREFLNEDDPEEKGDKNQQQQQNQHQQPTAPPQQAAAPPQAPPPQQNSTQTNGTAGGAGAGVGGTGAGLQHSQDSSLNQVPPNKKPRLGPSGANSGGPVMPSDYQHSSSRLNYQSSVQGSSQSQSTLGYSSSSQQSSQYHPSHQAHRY
Sequence of Cyclin-C/Cyclin-dependent kinase 19 (P24863 whole entry, further chain): as the sequence (P24863 whole entry, further chain) above
Sequence of Cyclin-dependent kinase 7 (Homo sapiens) (P50613 whole entry): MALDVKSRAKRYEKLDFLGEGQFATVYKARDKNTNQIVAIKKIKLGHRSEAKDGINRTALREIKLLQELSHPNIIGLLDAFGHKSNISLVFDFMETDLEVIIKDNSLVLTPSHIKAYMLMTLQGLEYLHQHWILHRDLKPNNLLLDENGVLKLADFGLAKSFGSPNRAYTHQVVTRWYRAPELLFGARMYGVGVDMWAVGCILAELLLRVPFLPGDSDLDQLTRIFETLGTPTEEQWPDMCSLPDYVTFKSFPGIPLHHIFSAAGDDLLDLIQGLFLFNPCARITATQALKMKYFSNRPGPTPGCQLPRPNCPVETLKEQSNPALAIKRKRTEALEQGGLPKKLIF

IC50 [1] [µM]	inhibition [2] [%]	GI50 [4] [µM]	inhibition [5]	GI50 [6] [µM]	GI50 [7] [µM]	GI50 [8] [µM]	GI50 [9] [µM]	inhibition [10]	IC50 [19] [µM]	SMILES	GI50 [3] [µM]	AUC(0-t) at 24 h [11] [ng·h/mL]	Activity [12] [%]	Activity [13]	Cmax [14] [ng/mL]	MRT last at 24 h [15] [h]	half-life [16] [h]	Activity [17]	Tmax [18] [h]	Activity [20]
0.0436	101	> 30	Active	> 10	> 10	> 10	> 10	–	–	CN1CCN(C(=O)/C=C/c2ccncc2-c2ccc3ccccc3c2)CC1	> 10	–	–	–	–	–	–	–	–	–
0.005	102	> 30	Active	> 10	> 10	> 10	> 10	–	–	O=C(O)/C=C/c1ccncc1-c1ccc2ccccc2c1	> 10	–	–	–	–	–	–	–	–	–
0.0124	101	6.55	Active	8.68	6.62	> 10	9.34	–	–	CNC(=O)/C=C/c1ccncc1-c1ccc2ccccc2c1	7.66	–	–	–	–	–	–	–	–	–
0.0533	102	0.91	Active	8.09	5.38	> 10	8.32	–	–	CCOC(=O)/C=C/c1ccncc1-c1ccc2ccccc2c1	8.89	–	–	–	–	–	–	–	–	–
0.0603	99	6.04	Active	8.98	8.41	> 10	> 10	–	–	O=C(/C=C/c1ccncc1-c1ccc2ccccc2c1)N1CCOCC1	8.48	–	–	–	–	–	–	–	–	–
0.0428	100	> 30	Active	> 10	> 10	> 10	> 10	–	–	COC1CN(C(=O)/C=C/c2ccncc2-c2ccc3ccccc3c2)C1	> 10	–	–	–	–	–	–	–	–	–

Continued, molecule first:

SMILES	IC50 [1] [µM]	inhibition [2] [%]	GI50 [4] [µM]	inhibition [5]	GI50 [6] [µM]	GI50 [7] [µM]	GI50 [8] [µM]	GI50 [9] [µM]	inhibition [10]	IC50 [19] [µM]	GI50 [3] [µM]	AUC(0-t) at 24 h [11] [ng·h/mL]	Activity [12] [%]	Activity [13]	Cmax [14] [ng/mL]	MRT last at 24 h [15] [h]	half-life [16] [h]	Activity [17]	Tmax [18] [h]	Activity [20]
CNC(=O)/C=C/c1ccncc1-c1ccc2c(ccn2C)c1	0.0776	99	4.45	Active	8.55	6.45	7.08	7.12	–	–	5.69	–	–	–	–	–	–	–	–	–
O=C(/C=C/c1ccncc1-c1ccc2cc[nH]c2c1)N1CCOCC1	0.0439	102	> 30	Active	> 10	> 10	> 10	> 10	Active	–	> 10	–	–	–	–	–	–	–	–	–
COC(=O)/C=C/c1ccncc1-c1ccc2ccccc2c1	0.0406	102	0.35	–	4.71	0.76	6.73	8.17	–	–	5.46	153	44	Non-Toxic	46.6	2.68	3.93	Non-Toxic	0.57	–
CNC(=O)/C=C/c1ccncc1-c1ccc2[nH]ccc2c1	0.0519	100	> 30	Active	> 10	> 10	> 10	> 10	–	–	> 10	–	–	–	–	–	–	–	–	–
CCOC(=O)/C=C/c1ccncc1-c1ccc2cc[nH]c2c1	0.0121	104	2.14	Active	7.98	5.74	7.86	6.88	–	0.0457	7.7	–	–	–	–	–	–	–	–	–
CNC(=O)/C=C/c1ccncc1-c1ccc2cc[nH]c2c1	0.0186	103	10.3	Active	7.68	7.84	> 10	9.23	–	0.0282	10.9	–	–	–	–	–	–	–	–	–
CN(C)C(=O)/C=C/c1ccncc1-c1ccc2ccccc2c1	0.0301	100	4.54	–	7.99	5.8	7.76	8.19	–	–	4.93	–	–	–	–	–	–	–	–	Dose-Dependent Effect
CNC(=O)/C=C/c1ccncc1-c1ccc2c(cnn2C)c1	0.0867	98	3.48	Active	> 10	> 10	> 10	> 10	–	–	> 10	–	–	–	–	–	–	–	–	–
CCOC(=O)/C=C/c1ccncc1-c1ccc2[nH]ccc2c1	0.107	100	4.83	–	> 10	7.44	> 10	> 10	–	–	> 10	–	–	–	–	–	–	–	–	–
O=C(/C=C/c1ccncc1-c1ccc2ccccc2c1)NC1CC1	0.0401	102	6.18	Active	8.42	5.84	6.05	6.84	–	–	4.77	–	–	–	–	–	–	–	–	–
